Among the test systems are A498 renal; A549 NSCLC; ACHN renal; COLO 205 colon; DMS 114 small cell lung; HL-60(TB) leukemia; HOP-18 NSCLC; KM12 colon; M19-MEL melanoma; SF-539 CNS; SNB-78 CNS; SW-620 colon.
Assay in all cases: NCI-60 cell line screen, 48 h

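Five compound concentrations were applied to cells in 96-well plates for 48 hours; endpoints were derived by simple linear interpolation of the resulting dose-response curve. TGI: total growth inhibition.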

Take `C=C(CN(C)C)C(=O)c1ccccc1C`: the TGI was above 100 µM with A498 renal; above 100 µM in the experiment on A549 NSCLC; 57.6 µM in the experiment with ACHN renal; 31.9 µM in the experiment on COLO 205 colon; 42.5 µM with DMS 114 small cell lung; 15.9 µM with HL-60(TB) leukemia. Besides, the TGI was above 52.4 µM in the experiment on HOP-18 NSCLC; above 100 µM in the experiment with KM12 colon; 53.5 µM in the experiment on M19-MEL melanoma; above 60.8 µM with SF-539 CNS; above 100 µM with SNB-78 CNS; 33.1 µM with SW-620 colon.
Take `Cc1c(C#N)c2nnn(-c3ccc(Cl)cc3)c(=O)n2c1-c1ccccc1`: the TGI in the experiment on A498 renal is 3.92 µM; in the experiment on A549 NSCLC, above 40.3 µM; with ACHN renal, 83.4 µM; in the experiment on COLO 205 colon, 0.319 µM; with HL-60(TB) leukemia it was above 57.3 µM; in the experiment on KM12 colon, 11.6 µM. In addition, the results for the TGI in the experiment on SF-539 CNS and in the experiment on SW-620 colon were 0.6 µM and 31.4 µM, respectively.
Consider `NC(=O)c1nnc2ccc(F)cc2c1N`, for which the TGI with A498 renal, in the experiment with A549 NSCLC, in the experiment on ACHN renal, with COLO 205 colon, in the experiment on HL-60(TB) leukemia and with KM12 colon was above 100 µM throughout. Further, the TGI with SF-539 CNS and in the experiment with SW-620 colon was above 100 µM each time.
Consider `CCCCCC(C)(C)CCC(=O)OC1OC(COC2OC(COC3OC(CO)C(O)C(O)C3O)C(O)C(O)C2O)C(O)C(O)C1O` (centres undefined), for which the TGI with A498 renal, in the experiment on A549 NSCLC, in the experiment with ACHN renal, with COLO 205 colon, in the experiment with HL-60(TB) leukemia and with KM12 colon was above 100 µM in each case. For the same molecule, the TGI in the experiment with SF-539 CNS and in the experiment with SW-620 colon was above 100 µM each time.
As for `O=c1cc(NCCCCCO)[nH]c(=O)[nH]1`, the TGI in the experiment with A498 renal, in the experiment on A549 NSCLC, with ACHN renal, in the experiment on COLO 205 colon, in the experiment on HL-60(TB) leukemia and with KM12 colon was above 100 µM throughout. The TGI in the experiment with SF-539 CNS and in the experiment with SW-620 colon was above 100 µM each time.
Take `CC(=O)OC12/C(=N/O)CCCCCC1c1ccccc12` (centres undefined): the TGI in the experiment with A549 NSCLC, with ACHN renal, with COLO 205 colon, in the experiment on DMS 114 small cell lung, in the experiment with HL-60(TB) leukemia and in the experiment on HOP-18 NSCLC was above 100 µM in each case. Also, the TGI in the experiment with KM12 colon, in the experiment with M19-MEL melanoma, in the experiment with SNB-78 CNS and in the experiment with SW-620 colon was above 100 µM throughout.
In the case of `Cc1ccc(-c2nc(C)c(C(=O)Nc3ccc(Cl)cc3)s2)cc1`, the TGI in the experiment on A498 renal was 41.5 µM; in the experiment on A549 NSCLC, above 100 µM; in the experiment on ACHN renal, 42 µM; in the experiment on COLO 205 colon, above 100 µM; with HL-60(TB) leukemia, above 100 µM; in the experiment with KM12 colon it was above 100 µM. The TGI with SF-539 CNS and in the experiment with SW-620 colon was above 100 µM each time.
On to `O=C(O)c1ccccc1NC(c1ccccc1)c1ccc2cccnc2c1O` (centres undefined), for which the TGI in the experiment with A498 renal is above 100 µM; in the experiment on A549 NSCLC, above 100 µM; in the experiment on ACHN renal, above 100 µM; in the experiment on COLO 205 colon, 80.9 µM; with HL-60(TB) leukemia it was 8.22 µM; in the experiment on KM12 colon it was above 100 µM. Also, the TGI with SF-539 CNS was found to be 22.1 µM; in the experiment on SW-620 colon it was 46.4 µM.
Regarding `Cc1ccc(C2=Nc3cc(C)c(Cl)cc3S(=O)(=O)NN2)cc1`, the TGI in the experiment with A498 renal was above 100 µM; in the experiment on A549 NSCLC, above 100 µM; in the experiment with ACHN renal, above 100 µM; in the experiment on COLO 205 colon, above 100 µM; in the experiment on HL-60(TB) leukemia it was 90.7 µM; in the experiment on KM12 colon, above 100 µM. Besides, the TGI with SF-539 CNS and in the experiment on SW-620 colon was above 100 µM throughout.
As for `CCCCCCCC1C(C)c2c([nH]c3ccccc23)C2C(=O)N(c3ccc(OC)cc3)C(=O)C21` (centres undefined), the TGI in the experiment on A498 renal is 5.47 µM; in the experiment on A549 NSCLC, 5.33 µM; in the experiment with ACHN renal it was 5.74 µM; in the experiment with COLO 205 colon it was above 10 µM; in the experiment with HL-60(TB) leukemia it was 3.73 µM; in the experiment on KM12 colon, above 10 µM. Further, the TGI in the experiment on SF-539 CNS was above 7.09 µM; in the experiment with SW-620 colon, above 8.94 µM.
As for `CCOC(=O)C1(C(N)=O)C(=O)c2ccncc2C1=O` (centres undefined), the TGI in the experiment on A498 renal, with A549 NSCLC, with ACHN renal, in the experiment with COLO 205 colon, in the experiment on HL-60(TB) leukemia and in the experiment on KM12 colon was above 100 µM in each case. In addition, the TGI in the experiment with SF-539 CNS and in the experiment with SW-620 colon was above 100 µM in each case.
As for `CN(C)CCOc1cccc2c1C(=O)c1ccccc1C2=O`, the TGI was 33.3 µM in the experiment on A498 renal; 45.4 µM in the experiment on A549 NSCLC; above 100 µM with ACHN renal; 16.1 µM with COLO 205 colon; 22.6 µM in the experiment with DMS 114 small cell lung; 29.4 µM in the experiment with HL-60(TB) leukemia. In addition, the TGI is 46.9 µM with HOP-18 NSCLC; 26.2 µM with KM12 colon; 17.9 µM in the experiment with M19-MEL melanoma; 22.6 µM in the experiment on SF-539 CNS; 38.2 µM in the experiment with SNB-78 CNS; 43.7 µM in the experiment on SW-620 colon.
Consider `Cc1c2c(c(C)n1-c1ccccc1)C(=O)N(CCCCN1CCN(c3ccccc3)CC1)C2=O`, for which the TGI was 69 µM with A498 renal; above 100 µM in the experiment with A549 NSCLC; above 100 µM with ACHN renal; 21.7 µM in the experiment on COLO 205 colon; 17.2 µM in the experiment on HL-60(TB) leukemia; above 100 µM in the experiment with KM12 colon. Further, the figures for the TGI in the experiment on SF-539 CNS and with SW-620 colon were 26.5 µM and above 100 µM, respectively.

For the origin of these results see PubChem BioAssay (NCI).
